Results on four compounds are retold here after EP0049683A2, “Imidazo-rifamycines, process for their preparation, pharmaceutical preparations containing them and their use” (CIBA-GEIGY AG, priority 1980, dated 1982).

Series [1] is classed as physicochemical. How it is done: Eine Lösung von 0,5 g 3-Dimethylaminomethylenamino-Rifamycin S in 5 ml Methanol wird mit 2 ml einer 10 % (G/V) wässerigen Natriumbicarbonatlösung und 5 ml einer 10 % (G/V) Lösung von K4[Fe(CN)6] Kaliumferrocyanid) in Wasser versetzt, die Lösung 3 Minuten intensiv gerührt und mit je 20 ml Wasser und Chloroform verdünnt. Die Chloroformphase wird abgetrennt und die wässerige Phase noch zweimal mit Chloroform extrahiert. Die vereinigten Chloroformextrakte werden getrocknet und eingedampft, wodurch 3-Dimethylaminomethylenamino-Rifamycin SV als gelbes Pulver resultiert.

The format of series [2] is physicochemical. How it is done:
Eine unter Stickstoff gerührte Suspension von 15,50 g 4-Dimethylamino-imidazolo[4,5-c]rifamycin SV (1) in 150 ml Wasser wird tropfenweise mit 20,0 ml einer 1-N-wässrigen Natriumhydroxid-Lösung (0,987 Aequivalent) versetzt. Die resultierende gelbgefärbte Lösung wird filtriert und das Filtrat der Gefriertrocknung unterworfen. […] Für C40H51N4O11Na (MG 786,85) berechnet 2,92% Na; gefunden 2,87% Na.
Eine gerührte Suspension von 8,75 g 4-(4-Isobutylpiperazinyl)-imidazolo[4,5-c]rifamycin SV (4) in 165 ml Wasser wird mit 10,0 ml 1-normaler wässriger Salzsäure (0,985 Aequivalent) versetzt. Das Gemisch wird filtriert, und das Filtrat der Gefriertrocknung unterworfen. Das erhaltene 4-(4-Isobutylpiperazinyl)-imidazolo[4,5-c]rifamycin SV-Hydrochlorid bildet ein wasserlösliches, gelbes amorphes Pulver. Für C46H63N5O11 · HC1 (898,49) berechnet: 3,95% Cl, gefunden: 4,08% Cl.
The source holds these as a separate data set.

The subject of series [3] is Staphylococcus aureus 2999. Briefly: Agar dilution MIC in DST agar (Ericsson and Sherris). The series is classed as cell-based. The settings on record: Staphylococcus aureus, 2999, in vitro, read-out: MIC Staph. 2999. In outline:
(§1)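 Growth inhibition on compound-containing agar determined the minimum inhibitory concentration, reported as µg/ml.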

For series [4], the system named is Staphylococcus aureus 10B. The description is as above. The series is classed as cell-based. The settings on record: Staphylococcus aureus, 10B, in vitro, read-out: MIC Staph. 10B. In outline: as §1
Series [5] relates to Pseudomonas aeruginosa K 799/61. The series is described as above. The series is classed as cell-based. The settings on record: Pseudomonas aeruginosa, K799/61, read-out: MIC Pseu. 799. In short, it runs like this:
as §1

For a further series, the system named is Proteus morganii 1518. The series is described as above. The series is classed as cell-based. Conditions: Morganella morganii, 1518, in vitro, read-out: MIC Prot. 1518. In short, it runs like this:
as §1

The subject of a further series is Escherichia coli 205. The series is described as above. It is filed as cell-based. Conditions: Escherichia coli, 205, in vitro, read-out: MIC Esch. 205. In short, it runs like this: as §1
A further series has as its system Escherichia coli 2018. The series is described as above. It is filed as cell-based. Conditions: Escherichia coli, 2018, in vitro, read-out: MIC Esch. 2018. In outline: as §1
The test system of series [6] is Salmonella Typhimurium 277. The description is as above. Conditions: Salmonella enterica, TYPHIMURIUM, in vitro, read-out: MIC Salm. 277. It is filed as cell-based. In outline: as §1
The next series deals with Proteus morganii 2359. Described as above. It is filed as cell-based. Conditions: Morganella morganii, 2359, in vitro, read-out: MIC Prot. 2359. In outline:
as §1

For series [7], the system named is Enterobacteriaceae, z.B. Escherichia coli, Pseudomonas aeruginosa und Proteus morganii. The experiment in a line: In vitro antibacterial activity against gram-negative rods. The series is classed as cell-based. The settings on record: within the stated concentration range, 1 bis 64 y/ml. The source says:
(§2) Die neuen erfindungsgemässen Verbindungen der Formel I zeichnen sich vor allem durch ihre wertvollen pharmakologischen Eigenschaften aus: so besitzen sie gemäss den Resultaten in vitro antibiotische, insbesondere antibakterielle Eigenschaften, wie z.B. einerseits gegen grammpositive Kokken, wie Staphylococcus aureus, (im getesteten Konzentrationsbereich 0,005 bis 128 y/ml),andererseits gegen grammnegative Stäbchenbakterien, wie Enterobacteriaceae, z.B. Escherichia coli, Pseudomonas aeruginosa und Proteus morganii (im getesteten Konzentrationsbereich von 1 bis 64 y/ml), sowie gegen Mycobacterium tuberculosis (im getesteten Konzentrationsbereich von 0,48 bis 1,9 y/ml). […] (Für die Testresultate siehe auch Tabelle -1.)
(§3) Auch die neuen erfindungsgemässen Verbindungen der Formeln V und VI zeichnen sich durch analoge wertvolle pharmakologische Eigenschaften aus, d.h. sie besitzen gemäss den Resultaten in vitro antibiotische, insbesondere antibakterielle Eigenschaften, die sich bezüglich des Anwendungsbereichs sowie der getesteten effektiven Konzentrationen den Verbindungen der Formel I praktisch gleichen. […] (Für die Testresultate siehe auch Tabelle 2.)

Series [8] deals with Mycobacterium tuberculosis. The experiment in a line: Agar dilution MIC in DST agar (Ericsson and Sherris). The series is classed as cell-based. The settings on record: Mycobacterium tuberculosis, in vitro, read-out: MIC Myc. tub. In general terms: In agar dilution, organisms are placed on agar that contains the substance at set levels.
In the next series the test system is Staphylococcus aureus. The experiment in a line: In vitro antibacterial activity against gram-positive cocci. Conditions: at (at or below) the lowest limit of the tested concentration range, 0,005 y/ml. The series is classed as cell-based.
Description: as §2, §3

In brackets after ≈: the same amount, converted by molar mass.

For “3-Dimethylaminomethylenamino-Rifamycin SV [Beispiel 78A]”, the “Stabilität beim Stehen in einer Lösung” value in series [1] is given as “sehr schnell wieder zum Chinon durch Luftsauerstoffoxidation umgewandelt”.
For the compound `COC1C=COC2(C)Oc3c(C)c(O)c4c(O)c(c5[nH]c(N6CCN(CC(C)C)CC6)nc5c4c3C2=O)NC(=O)C(C)=CC=CC(C)C(O)C(C)C(O)C(C)C(OC(C)=O)C1C.Cl` (centres unmarked) [4-(4-Isobutylpiperazinyl)-imidazolo[4,5-c]rifamycin SV-Hydrochlorid], the “Löslichkeit in Wasser” value in [2] was “wasserlösliches”.
With `COC1C=COC2(C)Oc3c(C)c(O)c4c(O)c(c5nc(N6CCN(C)CC6)[nH]c5c4c3C2=O)NC(=O)C(C)=CC=CC(C)C(O)C(C)C(O)C(C)C(OC(C)=O)C1C` (centres unmarked) [Verbindung 3, 4-(4-Methylpiperazinyl)-imidazolo[4,5-c]rifamycin SV], the MIC (commonly the lowest concentration that inhibits growth of the organism) in [3] was found to be 0.01 µg/mL (≈ 0.0122 µM); in [4], 0.01 µg/mL (≈ 0.0122 µM); in series [5] it was 4 µg/mL (≈ 4.88 µM); in the series on Proteus morganii 1518, 16 µg/mL (≈ 19.5 µM); in the series on Escherichia coli 205, 16 µg/mL (≈ 19.5 µM); with Escherichia coli 2018 it was 16 µg/mL (≈ 19.5 µM). Further, the MIC was 32 µg/mL (≈ 39 µM) in series [6], 16 µg/mL (≈ 19.5 µM) in the series on Proteus morganii 2359 and 0.97 µg/mL (≈ 1.18 µM) in [8]. The “Hemmung der Enterobacterien” value in series [7] is “wirksam hemmen”. Besides, the “Hemmwirkung auf Staphylococcus aureus” value in the series on Staphylococcus aureus is “deutliche Hemmwirkung”.
With “4-Dimethylamino-imidazolo[4,5-c]rifamycin SV-Natriumsalz”, the “Löslichkeit in Wasser” value in series [2] is “in Wasser klar lösliches”.
